Measurements taken from patent US20230002327A1, “SMALL-MOLECULE REGULATOR OF TLR8” (TSINGHUA UNIVERSITY, priority 2019, published 2023).

Legend:
[1] = target: T1, TLR8 (Homo sapiens, UniProt Q9NR97); assay: ORN06-induced signaling in HEK-Blue hTLR8 cell line; format: cell-based
T1 construct: host or cells: HEK-Blue hTLR8 (HEK293-derived SEAP reporter cells)
T1 sequence (Q9NR97 27-1041): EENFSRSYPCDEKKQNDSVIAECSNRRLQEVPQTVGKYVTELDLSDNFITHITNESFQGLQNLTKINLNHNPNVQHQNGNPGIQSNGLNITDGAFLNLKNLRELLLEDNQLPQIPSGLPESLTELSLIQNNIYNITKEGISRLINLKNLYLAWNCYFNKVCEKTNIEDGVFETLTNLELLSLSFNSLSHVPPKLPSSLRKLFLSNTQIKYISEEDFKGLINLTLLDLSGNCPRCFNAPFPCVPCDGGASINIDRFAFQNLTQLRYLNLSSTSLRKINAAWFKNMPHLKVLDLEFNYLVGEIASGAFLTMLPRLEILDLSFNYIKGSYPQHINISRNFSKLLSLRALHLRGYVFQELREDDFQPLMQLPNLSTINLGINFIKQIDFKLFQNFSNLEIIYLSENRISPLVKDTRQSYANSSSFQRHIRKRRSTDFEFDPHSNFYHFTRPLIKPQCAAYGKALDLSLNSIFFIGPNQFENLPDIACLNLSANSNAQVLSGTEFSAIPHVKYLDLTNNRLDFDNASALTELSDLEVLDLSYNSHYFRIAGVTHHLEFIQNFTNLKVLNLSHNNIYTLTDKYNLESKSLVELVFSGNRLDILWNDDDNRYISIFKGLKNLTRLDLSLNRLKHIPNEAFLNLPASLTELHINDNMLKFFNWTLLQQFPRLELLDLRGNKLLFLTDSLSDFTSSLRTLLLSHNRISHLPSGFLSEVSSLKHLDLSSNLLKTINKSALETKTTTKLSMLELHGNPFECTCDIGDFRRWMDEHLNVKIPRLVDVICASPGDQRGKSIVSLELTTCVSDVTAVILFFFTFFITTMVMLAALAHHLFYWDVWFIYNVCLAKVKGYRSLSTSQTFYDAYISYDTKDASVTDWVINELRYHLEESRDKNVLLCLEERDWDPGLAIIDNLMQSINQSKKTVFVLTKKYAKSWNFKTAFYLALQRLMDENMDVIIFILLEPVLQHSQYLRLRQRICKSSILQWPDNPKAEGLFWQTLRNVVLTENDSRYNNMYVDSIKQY
Description: HEK Blue hTLR8 cells or HEK Blue hTLR7 cells were cultured in DMEM medium supplemented with 10% fetal bovine serum, penicillin (100 U/mL) and streptomycin ([…]). Thereafter, cells were seeded in 96-well plate (45,000 cells per well), and were cultured for 24 hours in a humidified incubator (37° C., 5% CO2).
After 24 hours, the supernatant and suspending cells were aspirated and replaced with fresh serum-free DMEM. Cells were treated with 1 μg/mL of R848 (agonist of TLR7/8) or 5 μg/mL of ssRNA40/LyoVec or 5 μg/mL of ORN06/LyoVec (InvivoGen) and compounds with specified concentrations, and were placed in a humidified incubator (37° C., 5% CO2) for co-culture.
After 24 hours, 50 μL of the medium was aspirated from each well and then added to a new 96-well plate, followed by the addition of 50 μL of Quanti-Blue in each well and the incubation at 37° C. in darkness. Changes in color would occur in the […] within 60 minutes, and the absorbance was measured at 620 nm by using the multi-mode plate reader Vrioskan Flash. Inhibition rate (%)=[R848 (OD620)−Compound (OD620)]/[R848 (OD620)−Control (OD620)]×100%. Among these, the control group was only added with the same amount of cells. Finally, the software Prism 6.0 was utilized to plot a graph and calculate IC50 values. […]

[2] = target: T1, TLR8; assay: Inhibition of R848-induced signaling in HEK-Blue hTLR8 cell line (Quanti-Blue); format: cell-based
In short: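 HEK-Blue hTLR8 cells, 45,000 per well, cultured 24 h then switched to serum-free DMEM; after a further 24 h, supernatant SEAP read with Quanti-Blue at 620 nm. Inhibition computed relative to R848 and untreated-cell OD620; IC50 from curve fit.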

[3] = target: T1, TLR8; assay: Specificity test in HEK-Blue TLR cell lines: TLR8; format: cell-based
Description: The selectivity of compounds for receptors in TLR family was tested in HEK-Blue cells overexpressing various TLRX (x=1 to 9) respectively. The steps of this test method were the same as those mentioned above in “Activity Test of Compounds”, except that the ligands corresponding to different TLRs were used to activate the downstream signaling in the corresponding cells. Among these, ploy (I:C) (20 μg/mL), LPS (40 ng/mL), Pam3CSK4 (100 ng/mL), Pam2CSK4 (100 ng/mL), flagellin (200 ng/mL), R848 (1 μg/mL) and ODN2006 (0.5 μM) were used to selectively activate HEK-Blue hTLR3-, hTLR4-, hTLR1/2-, hTLR2/6-, hTLR5-, hTLR7- and hTLR9-overexpressing cells, respectively.

[4] = test system: HEK-Blue hTLR8 cell line; assay: Toxicity test of compounds (CCK-8 cell viability); format: cell-based, human; set-up: key to WST1 (normalized toxicity effect): viability relative to control well (background-subtracted OD), 1 = control
Description: In the 96-well plate used for the above-mentioned activity test of compounds (remaining 50 μL of culture medium containing cells), 5 μL of CellCountingKit-8 (CCK-8) Supermix was added to each well. Note that the introduction of air bubbles into the wells should be avoided since the air bubbles would interfere with the detection of OD value.
The culture plate was incubated in an incubator for 1 to 4 hours,
The edge of the 96-well plate could be tapped gently before reading the plate, and then the absorbance at 450 nm was measured by using the multi-mode plate reader.
Cell viability (%) was determined using the following formula: cell viability (%)=([Compound well ([…])−Background well (OD450)]/[Control well ([…])−Background well (OD450)])×100%. Among these, the background well was only added with the medium and CCK-8 reagent, the control well was only added with the medium, cells, R848 and CCK-8, and the compound wells were added with the medium, cells, R848, compounds in different concentrations, and CCK-8.

[5] = HEK-Blue hTLR8 cell line (FIG. 1, FIG. 10)
[6] = HEK-Blue hTLR8 cell line, at a concentration of 100 μM (FIG. 12)

Structure (SMILES) | inhibitory effect on ORN06-induced signaling ([1]; HEK-Blue hTLR8 cell line (FIG. 1)) | inhibitory effect on R848-induced signaling [2, 5] | IC50 ([2]; R848-induced signaling, HEK-Blue hTLR8 cell line, value ± standard deviation, at least triplicate) [nM] | specific inhibitory effect on HEK-Blue hTLR8 cell line ([3]; at a concentration of 20 μM (FIG. 3)) | toxicity in HEK-Blue hTLR8 cell line ([4]; even at a concentration of 100 μM (FIG. 2)) | synergistic activating effect on ORN06-induced signaling [1, 6] | inhibitory effect on R848-induced signaling [2, 6] | Remaining R848-induced TLR8 signaling (normalized activity; ligand+DMSO = 1, untreated = 0) ([2]; HEK-Blue hTLR8 cell line, normalized, ligand+DMSO = 100% activity, untreated = 0%) | specific inhibitory effect on TLR8 signaling pathway ([3]; at a concentration of 100 μM (FIG. 11)) | influence on cell viability ([4]; HEK-Blue hTLR8 cells, under the test conditions (FIG. 10)) | WST1 (normalized toxicity effect) ([4]; normalized cell viability, HEK-Blue cell lines)
CSc1nnc(CCCO)n1-c1cc(C)c(C)c(C)c1 [Compound 24, 3-(5-(methylthio)-4-(3,4,5-trimethylphenyl)-4H-1,2,4-triazole-3-yl)propan-1-ol] | excellent inhibitory effect | excellent inhibitory effect | 30 ± 2 | specific inhibitory effect | did not cause significant toxicity | – | – | – | – | – | –
CCOCc1nc(I)c(-c2ccccc2)n1CC(C)(C)O [Compound 53, 1-[2-(ethoxymethyl)-4-iodo-5-phenyl-1H-imidazole-1-yl]-2-methylpropan-2-ol] | – | significant inhibitory effect | – | – | – | synergistic activating effect | significant inhibitory effect | 0.1 ± 0.1 | specific inhibitory effect | no influence on cell viability | 0.9 ± 0.2
